Source: ChEMBL document CHEMBL1201862, “PubChem BioAssay data set” (2004)
The source made the active and inactive calls.

What was measured:
[1] = viability inhibitors of stage V gametocytes – luminescence, dose response (AID 1117278); format: functional, cell-based;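 note: gametocytes exposed to compound for 24 hours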
[2] = viability loss in human Jurkat cells – cell-based, luminescence, cytotoxicity control for P. falciparum gametocyte viability project, dose response (AID 1117277); format: functional;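 note: potency reflects loss of cellular ATP meaning fewer viable cells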
Transthyretin = Transthyretin (Homo sapiens, UniProt P02766); test: Luminescence-based cell-based high throughput dose response assay to identify activators of Transthyretin (TTR) transcription.; format: functional
[3] = Late-stage results from the probe development effort to identify antagonists of arginine vasopressin receptor 1a (AVPR1a): fluorescence-based cell-based dose response AVPR1a inhibition assay.; format: functional
Vasopressin V1b receptor = Vasopressin V1b receptor (Homo sapiens, UniProt P47901); test: Late-stage results from the probe development effort to identify antagonists of arginine vasopressin receptor 1a (AVPR1a): fluorescence-based cell-based dose response AVPR1b inhibition counterscreen assay.; format: functional
Vasopressin V2 receptor = Vasopressin V2 receptor (Homo sapiens, UniProt P30518); test: Late-stage results from the probe development effort to identify antagonists of arginine vasopressin receptor 1a (AVPR1a): fluorescence-based cell-based dose response AVPR2 inhibition counterscreen assay.; format: functional
[4] = Late-stage results from the probe development effort to identify antagonists of arginine vasopressin receptor 1a (AVPR1a): fluorescence-based cell-based dose response OXTR inhibition counterscreen assay.; format: functional
[5] = Late-stage results from the probe development effort to identify antagonists of arginine vasopressin receptor 1a (AVPR1a): luminescence-based cell-based dose response counterscreen assay to determine cytotoxicity of the test compound.; format: functional
[6] = viability loss in A549 lung cells – cell-based, 24 h, CellTiter-Glo luminescence, cherry-picks, cytotoxicity control, dose response (AID 1053115); format: functional; settings: A549, 24 h
[7] = biological target: RNA-editing ligase 1, mitochondrial (Trypanosoma brucei brucei, UniProt P86926); test: inhibition of trypanosome RNA editing ligase – biochemical, fluorescence, Trypanosoma brucei, dose response (AID 1117295); format: functional
[8] = biological target: G-protein coupled receptor 183 (Homo sapiens, UniProt P32249); test: SAR confirmation of small molecule antagonists of the EBI2 receptor via a luminescent beta-arrestin assa.; format: functional
[9] = biological target: Muscarinic acetylcholine receptor M5 (Rattus norvegicus, UniProt P08911); test: Discovery of Novel Antagonists of Muscarinic Receptor M5: Counterscreen against RAT M5.; format: functional
[10] = biological target: Muscarinic acetylcholine receptor M5 (Homo sapiens, UniProt P08912); test: inhibition of ACh-evoked human M5 signalling – cell-based, CHO-K1 hM5, Fluo-4 calcium flux, ACh EC80, dose response (AID 743110); format: functional
Muscarinic acetylcholine receptor M5 (Homo sapiens, UniProt P08912), sequence (P08912 whole entry): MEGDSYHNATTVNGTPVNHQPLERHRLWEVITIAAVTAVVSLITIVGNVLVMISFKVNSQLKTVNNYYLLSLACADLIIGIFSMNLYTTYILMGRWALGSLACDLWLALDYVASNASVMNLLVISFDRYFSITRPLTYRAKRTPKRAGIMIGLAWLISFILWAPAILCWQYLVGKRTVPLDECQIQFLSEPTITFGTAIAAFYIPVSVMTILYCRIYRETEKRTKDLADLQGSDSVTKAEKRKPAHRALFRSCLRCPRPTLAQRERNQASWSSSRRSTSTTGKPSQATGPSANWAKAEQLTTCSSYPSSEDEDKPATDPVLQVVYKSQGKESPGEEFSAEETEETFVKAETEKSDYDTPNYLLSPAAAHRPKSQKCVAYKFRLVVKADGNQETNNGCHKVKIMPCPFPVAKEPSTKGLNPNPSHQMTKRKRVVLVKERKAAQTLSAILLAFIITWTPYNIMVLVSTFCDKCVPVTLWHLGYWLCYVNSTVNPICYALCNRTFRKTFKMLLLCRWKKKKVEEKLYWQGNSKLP

G-protein coupled receptor 183, sequence (P32249 whole entry): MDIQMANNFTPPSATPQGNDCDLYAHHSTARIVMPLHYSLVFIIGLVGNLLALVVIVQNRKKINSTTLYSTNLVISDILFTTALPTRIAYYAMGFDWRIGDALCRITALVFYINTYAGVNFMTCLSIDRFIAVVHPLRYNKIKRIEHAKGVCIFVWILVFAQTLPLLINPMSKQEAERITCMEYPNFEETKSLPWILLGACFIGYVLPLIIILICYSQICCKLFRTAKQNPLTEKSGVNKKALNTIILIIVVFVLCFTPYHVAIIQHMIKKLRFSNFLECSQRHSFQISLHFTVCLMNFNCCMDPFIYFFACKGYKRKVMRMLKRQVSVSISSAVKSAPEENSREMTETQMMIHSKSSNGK
Vasopressin V2 receptor, sequence (P30518 whole entry): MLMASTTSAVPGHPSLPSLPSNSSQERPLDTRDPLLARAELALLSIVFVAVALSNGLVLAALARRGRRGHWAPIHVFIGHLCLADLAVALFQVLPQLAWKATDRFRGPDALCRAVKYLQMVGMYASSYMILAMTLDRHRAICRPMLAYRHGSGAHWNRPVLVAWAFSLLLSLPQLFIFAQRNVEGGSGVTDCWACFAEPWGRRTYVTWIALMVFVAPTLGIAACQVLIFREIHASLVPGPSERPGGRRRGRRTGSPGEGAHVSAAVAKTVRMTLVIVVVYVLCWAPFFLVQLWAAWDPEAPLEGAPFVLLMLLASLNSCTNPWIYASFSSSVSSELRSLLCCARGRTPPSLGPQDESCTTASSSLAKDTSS
RNA-editing ligase 1, mitochondrial, sequence (P86926 whole entry): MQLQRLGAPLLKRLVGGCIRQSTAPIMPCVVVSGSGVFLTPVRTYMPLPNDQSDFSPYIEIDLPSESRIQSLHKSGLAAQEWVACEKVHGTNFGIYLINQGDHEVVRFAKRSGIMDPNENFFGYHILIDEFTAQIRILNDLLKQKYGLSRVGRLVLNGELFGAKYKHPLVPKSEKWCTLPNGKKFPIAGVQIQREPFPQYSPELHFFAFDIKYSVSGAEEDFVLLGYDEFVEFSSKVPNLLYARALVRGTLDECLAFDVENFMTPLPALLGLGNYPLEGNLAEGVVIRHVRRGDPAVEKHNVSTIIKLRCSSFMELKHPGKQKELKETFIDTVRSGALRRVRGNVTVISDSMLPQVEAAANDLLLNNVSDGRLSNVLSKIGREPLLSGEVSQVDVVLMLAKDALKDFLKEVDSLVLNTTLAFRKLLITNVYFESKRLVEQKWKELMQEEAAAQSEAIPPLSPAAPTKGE
Muscarinic acetylcholine receptor M5 (Rattus norvegicus, UniProt P08911), sequence (P08911 whole entry): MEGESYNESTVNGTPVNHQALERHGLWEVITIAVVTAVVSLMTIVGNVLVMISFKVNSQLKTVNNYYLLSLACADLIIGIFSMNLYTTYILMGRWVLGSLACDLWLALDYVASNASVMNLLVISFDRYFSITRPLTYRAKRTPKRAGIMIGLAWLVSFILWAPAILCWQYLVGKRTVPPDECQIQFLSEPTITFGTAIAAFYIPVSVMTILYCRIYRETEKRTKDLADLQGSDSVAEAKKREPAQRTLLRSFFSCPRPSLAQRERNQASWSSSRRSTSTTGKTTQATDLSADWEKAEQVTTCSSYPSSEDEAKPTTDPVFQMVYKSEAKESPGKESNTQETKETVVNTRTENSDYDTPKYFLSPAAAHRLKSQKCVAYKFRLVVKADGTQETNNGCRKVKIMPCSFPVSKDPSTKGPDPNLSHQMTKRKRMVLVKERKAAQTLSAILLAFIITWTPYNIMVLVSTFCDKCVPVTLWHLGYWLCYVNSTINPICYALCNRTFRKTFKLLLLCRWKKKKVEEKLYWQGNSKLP
Vasopressin V1b receptor, sequence (P47901 whole entry): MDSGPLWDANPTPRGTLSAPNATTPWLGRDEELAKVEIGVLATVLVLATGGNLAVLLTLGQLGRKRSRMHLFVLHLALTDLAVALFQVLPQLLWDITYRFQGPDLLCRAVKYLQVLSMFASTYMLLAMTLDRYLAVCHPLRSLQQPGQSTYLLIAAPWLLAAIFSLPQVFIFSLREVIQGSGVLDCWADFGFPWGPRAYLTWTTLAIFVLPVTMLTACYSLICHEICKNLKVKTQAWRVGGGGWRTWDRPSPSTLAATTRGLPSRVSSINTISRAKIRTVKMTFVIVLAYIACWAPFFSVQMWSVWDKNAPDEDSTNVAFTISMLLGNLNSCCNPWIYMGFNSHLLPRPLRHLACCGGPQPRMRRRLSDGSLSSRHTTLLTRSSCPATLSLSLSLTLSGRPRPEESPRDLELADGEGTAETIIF

Question: For `c1ccc(CNC2=NCCS2)cc1`, which IC50 [1] is on record?
Answer: > 109 µM (inactive)

Question: What about the IC50 [2] of the same compound?
Answer: > 83.2 µM (inactive)

Question: Which EC50 (Transthyretin) does the source give for `Cn1ncc(Br)c1C(=O)N1CCc2ccccc21` here?
Answer: > 167 µM (inactive)

Question: With `O=C(C1CCN(c2ccc(Cl)cn2)CC1)N(CC1CC1)c1ccc(Cl)cc1` as the compound, how does the IC50 [3] read?
Answer: 0.04 µM (active)

Question: What about the IC50 (Vasopressin V1b receptor) of the same compound?
Answer: > 50 µM (active)

Question: What about the IC50 (Vasopressin V2 receptor) of the same compound?
Answer: > 50 µM (inactive)

Question: And the IC50 [4]?
Answer: > 50 µM (inactive)

Question: And the CC50 [5]?
Answer: > 25 µM (inactive)

Question: With `CCCNC(=O)N(C)C[C@@H]1Oc2ncc(C#CC3CCCCC3)cc2C(=O)N([C@H](C)CO)C[C@@H]1C` as the compound, how does the AC50 [6] read?
Answer: 59.7 µM (active)

Question: With `COC(=O)C1=C(C)N(Cc2cccc(C(F)(F)F)c2)C(NCc2ccc3c(c2)OCO3)=NC1c1ccccc1C(F)(F)F` (stereo not drawn) as the compound, how does the IC50 [7] read?
Answer: > 96.6 µM (inactive)

Question: Which IC50 [8] does the source give for `O=C(/C=C/c1ccc(F)cc1)N1CCN(S(=O)(=O)c2cccs2)CC1` here?
Answer: 0.081 µM (active)

Question: For `CCN(C(=O)c1cc(COc2cccc(C(C)=O)c2)on1)C(C)c1ccccn1` (stereo not drawn), which IC50 [9] is on record?
Answer: 6.84 µM (active)

Question: What about the IC50 [10] of the same compound?
Answer: 5.55 µM (active)
